Consider eight compounds from ChEMBL document CHEMBL1201862, “PubChem BioAssay data set” (2004).

Molecules are shown by their SMILES.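 Where inhibition never reached the appropriate level, the endpoint shown equals the highest concentration tested. Otherwise, values were interpolated linearly from a five-concentration, 48-hour dose response in 96-well plates. GI50 = concentration required for 50% inhibition of growth.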 Calls of active or inactive are those of the source. Cut-off read from the data, not from the text of the source: active = GI50 up to about 1.1 µM and inactive = higher.

Some test systems named below: CCRF-CEM; COLO 205; DU-145; EKVX; HCC 2998; HCT-116; HOP-92; HT-29; MCF7; MDA-MB-231; NCI-H23; NCI/ADR-RES; SK-MEL-5; SNB-19; SNB-75; SR; T47D; U-251; ACHN; RPMI-8226.
Holding throughout (experiment): NCI-60 cell line screen, 48 h

Regarding `CCOC(=O)c1c(-c2ccc(OC)cc2)c(C#N)c(=S)n(C2OC(CO)C(O)C(O)C2O)c1C` (configuration not stated), the GI50 in the test with CCRF-CEM, in the test on COLO 205, with DU-145, in the test on EKVX, with HCC 2998 and in the test on HCT-116 was > 100 µM (inactive) each time. Besides, the GI50 in the test on HOP-92, in the test with HT-29, in the test with MCF7, in the test on MDA-MB-231, in the test on NCI-H23 and with NCI/ADR-RES was > 100 µM (inactive) each time. For the same compound, the GI50 in the test with SK-MEL-5, in the test on SNB-19, in the test with SNB-75, with SR, in the test with T47D and with U-251 was > 100 µM (inactive) each time.
`CC(C(=O)N1c2ccccc2Sc2ccccc21)N1c2ccccc2Sc2ccccc21` (configuration not stated): the GI50 is > 100 µM (inactive) with ACHN; 57.1 µM (inactive) in the test with CCRF-CEM; 85.7 µM (inactive) with COLO 205; > 100 µM (inactive) in the test on DU-145; > 100 µM (inactive) in the test on EKVX; > 100 µM (inactive) in the test with HCT-116. Besides, the GI50 was 26.2 µM (inactive) in the test with HOP-92; 72.3 µM (inactive) with HT-29; 42.9 µM (inactive) with MCF7; > 100 µM (inactive) with MDA-MB-231; 74.8 µM (inactive) with NCI-H23; > 100 µM (inactive) in the test with NCI/ADR-RES. The GI50 in the test on RPMI-8226 is > 100 µM (inactive); in the test with SK-MEL-5, 57.5 µM (inactive); in the test with SNB-19, > 100 µM (inactive); in the test with SNB-75, 96.4 µM (inactive); in the test on SR, > 100 µM (inactive); with T47D, 46.1 µM (inactive). Further, the GI50 in the test on U-251 was 60 µM (inactive).
Take `CCCCCC(C)(C)CCC(=O)OC1OC(COC2OC(COC3OC(CO)C(O)C(O)C3O)C(O)C(O)C2O)C(O)C(O)C1O` (configuration not stated): the GI50 in the test on ACHN, in the test on CCRF-CEM, in the test with COLO 205, in the test on DU-145, in the test on EKVX and in the test with HCC 2998 was > 100 µM (inactive) each time. The GI50 in the test with HCT-116, in the test with HOP-92, in the test with HT-29, in the test with MCF7, in the test with MDA-MB-231 and in the test on NCI-H23 was > 100 µM (inactive) each time. Also, the GI50 in the test with NCI/ADR-RES, in the test on RPMI-8226, in the test with SK-MEL-5, in the test with SNB-19, in the test with SR and in the test with T47D was > 100 µM (inactive) throughout. Further, in the test on U-251, the GI50 is > 100 µM (inactive).
As for `CO/N=C\c1ccc2c(c1)Sc1ccccc1O2`, the GI50 is > 100 µM (inactive) with ACHN; 66.4 µM (inactive) in the test with COLO 205; > 100 µM (inactive) with DU-145; 30.2 µM (inactive) in the test on EKVX; 45.7 µM (inactive) with HCC 2998; 40.3 µM (inactive) in the test on HCT-116. Also, the GI50 in the test with HOP-92 was 36.4 µM (inactive); in the test with HT-29, 33.1 µM (inactive); in the test on MCF7, 34.7 µM (inactive); in the test on MDA-MB-231, > 100 µM (inactive); in the test on NCI-H23, 63 µM (inactive); in the test on NCI/ADR-RES, 90.6 µM (inactive). Moreover, the GI50 is 55.7 µM (inactive) in the test on RPMI-8226; > 100 µM (inactive) in the test with SNB-19; 52.5 µM (inactive) in the test on SNB-75; 23.4 µM (inactive) with SR; 24.5 µM (inactive) in the test with T47D; 54.5 µM (inactive) in the test on U-251.
As to `O=C(c1cccc(F)c1F)N1CCc2c([nH]c3ccccc23)C1c1ccc2c(c1)OCO2` (configuration not stated), the GI50 with ACHN was 18.8 µM (inactive); in the test with CCRF-CEM it was 5.83 µM (inactive); in the test with COLO 205, 3.59 µM (inactive); in the test with DU-145, 18.2 µM (inactive); with EKVX, 8.32 µM (inactive); in the test with HCT-116, 8 µM (inactive). The GI50 in the test on HOP-92 is 26.5 µM (inactive); with HT-29, 8.32 µM (inactive); in the test on MCF7 it was 4.27 µM (inactive); in the test with MDA-MB-231, 7.87 µM (inactive); in the test with NCI-H23 it was 11.7 µM (inactive); with NCI/ADR-RES, 5.56 µM (inactive). For the same compound, the GI50 in the test on RPMI-8226 is 8.2 µM (inactive); in the test on SK-MEL-5, 3.63 µM (inactive); in the test with SNB-19, 7.76 µM (inactive); with SNB-75 it was 1.99 µM (inactive); in the test on SR, 3.61 µM (inactive); in the test with T47D, 10.6 µM (inactive). For the same compound, the GI50 with U-251 was 11.1 µM (inactive).
Turning to `O=C(CN1CCCCC1)Nc1ccc2c(c1)C1Oc3ccccc3CC1CO2` (configuration not stated), the GI50 in the test on CCRF-CEM was 34.3 µM (inactive); with COLO 205 it was 13.3 µM (inactive); in the test with DU-145, 35.2 µM (inactive); with EKVX, 17.2 µM (inactive); with HCC 2998, 19.1 µM (inactive); with HCT-116, 16.2 µM (inactive). The GI50 with HOP-92 is 18.3 µM (inactive); in the test on HT-29, 14.5 µM (inactive); in the test with MCF7 it was 21.8 µM (inactive); in the test with MDA-MB-231 it was 17.3 µM (inactive); in the test on NCI-H23, 24.9 µM (inactive); in the test with NCI/ADR-RES it was 23.9 µM (inactive). Further, the GI50 is 28.8 µM (inactive) in the test on RPMI-8226; 13.8 µM (inactive) with SK-MEL-5; 23.2 µM (inactive) with SR; 16.4 µM (inactive) in the test with T47D; 18 µM (inactive) in the test on U-251.
For `CC1C2C=CC1C(c1c3ccc(=O)c(O)c-3oc3c(O)c(O)ccc13)C2C(=O)O` (configuration not stated), the GI50 in the test with ACHN is 53.5 µM (inactive); with CCRF-CEM it was 1.01 µM (active); with COLO 205 it was > 100 µM (inactive); in the test on DU-145, > 100 µM (inactive); in the test with EKVX it was 50.9 µM (inactive); in the test with HCC 2998 it was > 100 µM (inactive). Further, the GI50 in the test with HCT-116 was 27.8 µM (inactive); in the test on HOP-92, 75 µM (inactive); with HT-29, > 100 µM (inactive); in the test with MCF7, 20.7 µM (inactive); with MDA-MB-231, > 100 µM (inactive); with NCI-H23, 35.6 µM (inactive). The GI50 in the test on NCI/ADR-RES is > 100 µM (inactive); with RPMI-8226 it was 23.2 µM (inactive); in the test on SK-MEL-5, 91.6 µM (inactive); in the test with SNB-19, > 100 µM (inactive); in the test on SR it was 33.9 µM (inactive); in the test on T47D it was > 100 µM (inactive). In the test with U-251, the GI50 is 36.5 µM (inactive).
For the compound `CCCCCCCCCCCCCCCCCC(=O)OCC(COC(=O)CCCN)OC(=O)CCCN` (configuration not stated), the GI50 with ACHN was > 100 µM (inactive); with CCRF-CEM it was 28.8 µM (inactive); in the test on COLO 205 it was 16.5 µM (inactive); with DU-145, 19.6 µM (inactive); with EKVX it was 20.8 µM (inactive); with HCC 2998, 18.5 µM (inactive). For the same compound, the GI50 with HCT-116 is 19.5 µM (inactive); in the test on HOP-92, 13.4 µM (inactive); in the test on HT-29, 16.1 µM (inactive); in the test with MCF7, 24.4 µM (inactive); in the test on MDA-MB-231, 15 µM (inactive); in the test on NCI-H23 it was 16.4 µM (inactive). In addition, the GI50 is 19.7 µM (inactive) in the test on NCI/ADR-RES; 21.8 µM (inactive) in the test on SNB-19; > 100 µM (inactive) in the test on SNB-75; 23.6 µM (inactive) in the test on SR; 17.4 µM (inactive) in the test with T47D; 20.6 µM (inactive) in the test on U-251.
